These results are taken from patent US6710017B2, “Compositions and methods for controlling algae in recirculating water systems” (Avecia, Inc., priority 2000, dated 2004).

Where two headings read alike, the source gives them in different places.

Data set [1] concerns mustard algae. Description: Remedial laboratory study on algae, change in turbidity. The settings on record: for Change in Turbidity at active agent (ppm) five days post treatment: 5 ppm: 5 ppm active ingredient; for Change in Turbidity at active agent (ppm) five days post treatment: 5 ppm / Change in Turbidity at active agent (ppm) five days post treatment: 10 ppm: initial absorbance 0.10; for Change in Turbidity at active agent (ppm) five days post treatment: 5 ppm / Change in Turbidity at active agent (ppm) five days post treatment: 10 ppm / comments (Remedial Algae Control) / water turbidity: Table 2; for Turbidity @ 5 ppm active ingredient (Change in Turbidity at five days post treatment) / Turbidity @ 10 ppm active ingredient (Change in Turbidity at five days post treatment): Table 4; for Change in Turbidity at active agent (ppm) five days post treatment: 10 ppm: 10 ppm active ingredient; for water turbidity: indicating killing of the mustard algae.

In data set [2] the test system is mustard algae. Description: Preventative laboratory study on algae, visual growth score. The settings on record: for Score @ ppm active agent: 0: 0 ppm; for Score @ ppm active agent: 0 / Score @ ppm active agent: 10 / Score @ 10 ppm / Score @ ppm active agent: 15 / Score @ 15 ppm active ingredient: visual score 0 to 4, 10 days; for Score @ ppm active agent: 0 / Score @ ppm active agent: 10 / Score @ ppm active agent: 15: 27° C.; for Score @ ppm active agent: 10 / Score @ 10 ppm: 10 ppm; for Score @ 10 ppm / Score @ 15 ppm active ingredient: Table 3; for Score @ ppm active agent: 15 / Score @ 15 ppm active ingredient: 15 ppm; for Comments (Preventive Algae Control): Table 1.

How the values of data set [3] were obtained: The margin of exposure versus NOEL is determined by estimating the total daily dose of the herbicide to a child in a swimming pool and determining the ratio of the NOEL to this. The total daily exposure may be estimated as follows. Oral exposure is estimated by assuming that the swimmer is in the water 3 hours per day, and that the swimmer ingests 50 milliliters of pool water per hour of swimming. It is also assumed that the herbicide will be present in the pool water at a concentration of 10 parts per million, equivalent to 10 milligrams per liter of pool water. The daily oral exposure is therefore estimated as the product of the swimming duration, the ingestion rate, and the concentration in the pool water. Dermal exposure is estimated by assuming the swimmer is in the water 3 hours per day, that the total body surface area, 8800 square centimeters, is immersed in the water, and that the herbicide permeates the skin at a rate, expressed in centimeters per hour, predicted by a model for skin permeation based on chemical structure, the Skinperm model, developed by W. F. ten Berge. A short description of the Skinperm model, can be accessed at: http://home.wxs.nl/˜wtberge/, which is incorporated herein by reference. The daily dermal exposure is then estimated as the product of the permeation rate, the concentration of the herbicide in the pool water (expressed in milligrams per cubic centimeter), the swimming duration, and the total body surface area. The total daily exposure is estimated as the sum of the daily oral and daily dermal exposure. The daily dose, expressed in milligrams per kilogram bodyweight per day, is then estimated as the total daily exposure divided by an assumed body weight of 22 kilograms.
The margin of exposure versus RfD is determined by estimating the total daily dose of the herbicide to a child in a swimming pool, as described above, and determining the ratio of the RfD to this (i.e. margin of exposure/RfD).

Data set [4] can be described thus: Margin of exposure versus NOEL (estimated total daily dose to a child in a swimming pool). The settings on record: for Margin of Exposure vs NOEL (Target > 100): herbicides, Table A, ratio of NOEL to estimated daily dose, 10 ppm in pool water, child 22 kg, 3 hours per day; for Margin of Exposure vs NOEL: agricultural fungicides, Table B. Here is the method:
The herbicide preferably has a margin of exposure versus no observed effect level (“NOEL”) value of greater than 10, more preferably greater than 50, especially greater than 80, and more especially greater than 99. The margin of exposure versus NOEL is determined by estimating the total daily dose of the herbicide to a child in a swimming pool and determining the ratio of the NOEL to this. The total daily exposure may be estimated as follows. Oral exposure is estimated by assuming that the swimmer is in the water 3 hours per day, and that the swimmer ingests 50 milliliters of pool water per hour of swimming. It is also assumed that the herbicide will be present in the pool water at a concentration of 10 parts per million, equivalent to 10 milligrams per liter of pool water. The daily oral exposure is therefore estimated as the product of the swimming duration, the ingestion rate, and the concentration in the pool water. Dermal exposure is estimated by assuming the swimmer is in the water 3 hours per day, that the total body surface area, 8800 square centimeters, is immersed in the water, and that the herbicide permeates the skin at a rate, expressed in centimeters per hour, predicted by a model for skin permeation based on chemical structure, the Skinperm model, developed by W. F. ten Berge. A short description of the Skinperm model, can be accessed at: http://home.wxs.nl/˜wtberge/, which is incorporated herein by reference. The daily dermal exposure is then estimated as the product of the permeation rate, the concentration of the herbicide in the pool water (expressed in milligrams per cubic centimeter), the swimming duration, and the total body surface area. The total daily exposure is estimated as the sum of the daily oral and daily dermal exposure. The daily dose, expressed in milligrams per kilogram bodyweight per day, is then estimated as the total daily exposure divided by an assumed body weight of 22 kilograms.

[5] abbreviates: herbicides, Table A, 10 ppm in pool water, child 22 kg.

In the case of “Poly(oxyethylene(dimethylimino)-ethylene(dimethylimino)-ethylene dichloride) [Polyquat]”, in the data set on mustard algae [1], the “Change in Turbidity at active agent (ppm) five days post treatment: 5 ppm” value (“Change in Turbidity at active agent … 5 ppm” below) is given as “+0.29”, the “Turbidity @ 5 ppm active ingredient (Change in Turbidity at five days post treatment)” value was “+0.29”, the “Change in Turbidity at active agent (ppm) five days post treatment: 10 ppm” value (from here on “Change in Turbidity at active agent … 10 ppm”) is “+0.28” and the “Turbidity @ 10 ppm active ingredient (Change in Turbidity at five days post treatment)” value is given as “+0.28”. For the same compound, in the data set with mustard algae [2], the “Score @ ppm active agent: 0” value turned out to be 2, the “Score @ ppm active agent: 10” value came out at 2, the “Score @ 10 ppm” value is recorded as 2 and the “Score @ ppm active agent: 15” value turned out to be 2. Also, in the data set on mustard algae [2], the “Score @ 15 ppm active ingredient” value amounted to 2 and the “Comments (Preventive Algae Control)” value is recorded as “Bloom noticeable”.

For `COc1nc(C)nc(NC(=O)NS(=O)(=O)c2ccccc2Cl)n1` [Chlorsulfuron, 2-chloro-N-[[(4-methoxy-6-methyl-1,3,5-triazin-2-yl)amino]carbonyl]benzenesulfonamide], the “Margin of Exposure vs. RfD (Target > 1)” value in data set [3] (human, 3 hours per day, 10 ppm) is given as 0.7. Moreover, the “Margin of Exposure vs NOEL (Target > 100)” value in data set [4] is 67.

As to `COC(=O)c1ccccc1S(=O)(=O)NC(=O)Nc1nc(C)nc(OC)n1` [Metsulfuron-methyl, Methyl 2-[[[[(4-methoxy-6-methyl-1,3,5-triazin-2-yl)amino]carbonyl]amino]sulfonyl]benzoate], the “Margin of Exposure vs. RfD (Target > 1)” value in data set [3] (human, 3 hours per day, 10 ppm) is given as 3.3. In addition, in data set [4], the “Margin of Exposure vs NOEL (Target > 100)” value is listed as 333. In the data set on mustard algae [1], the “Change in Turbidity at active agent … 5 ppm” value is reported as “+0.09”, the “Change in Turbidity at active agent … 10 ppm” value was “+0.06” and the “comments (Remedial Algae Control)” value was “Algistatic. More”.

Regarding `Cc1cc(C2CC2)nc(Nc2ccccc2)n1` [Cyprodinil, 4-cyclopropyl-6-methyl-N-phenyl-2-pyrimidinamine], the “Margin of Exposure vs. RfD” value in data set [3] (human, 3 hours per day, 10 ppm) worked out at 0.5. Further, the “Margin of Exposure vs NOEL” value in data set [4] is listed as 50.

Consider `COC(=O)c1ccccc1CS(=O)(=O)NC(=O)Nc1nc(OC)cc(OC)n1` [Bensulfuron ME, Methyl 2-[[[[[(4,6-dimethoxypyrimidin-2-yl)amino]carbonyl]amino]sulfonyl]methyl]-benzoate], for which, in data set [3] (human, 3 hours per day, 10 ppm), the “Margin of Exposure vs. RfD (Target > 1)” value is listed as 2.7. In data set [4], the “Margin of Exposure vs NOEL (Target > 100)” value is 265. Further, in the data set with mustard algae [1], the “Change in Turbidity at active agent … 5 ppm” value is “+0.01”, the “Change in Turbidity at active agent … 10 ppm” value turned out to be 0.00, the “comments (Remedial Algae Control)” value is given as “algicidal activity” and the water turbidity result is “decreased significantly”.

In the case of `CC(C)NC(=O)N1CC(=O)N(c2cc(Cl)cc(Cl)c2)C1=O` [Iprodione, 3-(3,5-dichlorophenyl)-N-(1-methylethyl)-2,4-dioxo-1-imidazolidinecarboxamide], the “Margin of Exposure vs. RfD” value in data set [3] (human, 3 hours per day, 10 ppm) turned out to be 0.3. Moreover, in data set [4], the “Margin of Exposure vs NOEL” value is on record as 81.

On to `CCc1cccc(CC)c1N(COC)C(=O)CCl` [Alachlor, 2-chloro-2′,6′-diethyl-N-(methoxymethyl) acetanilide], for which the “Margin of Exposure vs. RfD (Target > 1)” value in data set [3] (setting [5]) is 0.1. Besides, in data set [4], the “Margin of Exposure vs NOEL (Target > 100)” value is on record as 13.

`CCc1cnc(C2=NC(C)(C(C)C)C(=O)N2)c(C(=O)O)c1` (stereo not shown) [Imazethapyr, 2-[4,5-dihydro-4-methyl-4-(1-methylethyl)-5-oxo-1H-imidazol-2-yl]-5ethyl-3-pyridinecarboxylic acid]: the “Margin of Exposure vs. RfD (Target > 1)” value in data set [3] (human, 3 hours per day, 10 ppm) amounted to 3.3. The “Margin of Exposure vs NOEL (Target > 100)” value in data set [4] is 3333.

For the compound `CCCC(=NOCC)C1=C(O)CC(CC(C)SCC)CC1=O` (stereo not shown) [Sethoxydim, 2-[1-(ethoxyimino)butyl]-5-[2-(ethylthio)propyl]-3-hydroxy-2-cyclohexen-1-one], the “Margin of Exposure vs. RfD (Target > 1)” value in data set [3] (setting [5]) worked out at 12. The “Margin of Exposure vs NOEL (Target > 100)” value in data set [4] was 119.

On to “6-chloro-N-methyl-N′-(1-methylethyl)-1,3,5-triazine-2,4-diamine [Norflurazon]”, for which, in data set [3] (setting [5]), the “Margin of Exposure vs. RfD (Target > 1)” value stood at 0.3. Moreover, the “Margin of Exposure vs NOEL (Target > 100)” value in data set [4] is on record as 20.

Take `COc1ccc(C(=CC(=O)N2CCOCC2)c2ccc(Cl)cc2)cc1OC` [Dimethomorph, (E,Z)-4-[3-(4-chlorophenyl)-3-(3,4-dimethoxyphenyl)acryloyl]morpholine]: the “Margin of Exposure vs. RfD” value in data set [3] (human, 3 hours per day, 10 ppm) stood at 0.8. For the same compound, in data set [4], the “Margin of Exposure vs NOEL” value is on record as 88.

Consider `CN(C)c1nc(=O)n(C2CCCCC2)c(=O)n1C` [Hexazinone, 3-cyclohexyl-6-(dimethylamino)-1-methyl-1,3,5-triazine-2,4(1H,3H)-dione], for which the “Margin of Exposure vs. RfD (Target > 1)” value in data set [3] (human, 3 hours per day, 10 ppm) came to 0.6. The “Margin of Exposure vs NOEL (Target > 100)” value in data set [4] is 63. Further, in the data set on mustard algae [1], the “Change in Turbidity at active agent … 5 ppm” value is listed as −0.03, the “Change in Turbidity at active agent … 10 ppm” value is listed as −0.03, the “comments (Remedial Algae Control)” value is listed as “algicidal activity” and the water turbidity result is “decreased significantly”.

Take “alkyl dimethyl benzylammonium chloride [ADBAC]”: in the data set with mustard algae [1], the “Change in Turbidity at active agent … 5 ppm” value is given as “+0.13”, the “Turbidity @ 5 ppm active ingredient (Change in Turbidity at five days post treatment)” value was “+0.13”, the “Change in Turbidity at active agent … 10 ppm” value is “+0.03” and the “Turbidity @ 10 ppm active ingredient (Change in Turbidity at five days post treatment)” value is “+0.03”. Besides, the “control of the mustard algae” value with mustard algae [1] (at 5× and 10× the EPA allowable dose) is on record as “no control”. In the data set on mustard algae [2], the “Score @ ppm active agent: 0” value amounted to 3, the “Score @ ppm active agent: 10” value turned out to be 3, the “Score @ 10 ppm” value turned out to be 3 and the “Score @ ppm active agent: 15” value was 0. Also, the “Score @ 15 ppm active ingredient” value in the data set with mustard algae [2] is given as 0.

Take `CCSC(=O)N1CCCCCC1` [Molinate, S-ethyl hexahydro-1H-azepine-1-carbothioate]: in data set [3] (setting [5]), the “Margin of Exposure vs. RfD (Target > 1)” value is on record as 0.03. The “Margin of Exposure vs NOEL (Target > 100)” value in data set [4] is 3.

Take `CSc1nc(NC(C)C)nc(NC(C)C)n1` [Prometryn, N,N′-bis(1-methylethyl)-6-(methylthio)-1,3,5-triazine-2,4-diamine]: in data set [3] (human, 3 hours per day, 10 ppm), the “Margin of Exposure vs. RfD (Target > 1)” value is 0.1. Moreover, the “Margin of Exposure vs NOEL (Target > 100)” value in data set [4] is on record as 50.

`CCNc1nc(NC(C)C)nc(SC)n1` [Ametryn, 2-ethylamino-4-isopropylamino-6-methylthio-s-triazine]: in data set [3] (human, 3 hours per day, 10 ppm), the “Margin of Exposure vs. RfD (Target > 1)” value was found to be 0.02. Moreover, the “Margin of Exposure vs NOEL (Target > 100)” value in data set [4] is 25.

For the compound `CCc1cccc(C)c1N(C(=O)CCl)C(C)COC` (stereo not shown) [metolachlor], in the data set with mustard algae [1], the “Change in Turbidity at active agent … 5 ppm” value is “+0.12”, the “Change in Turbidity at active agent … 10 ppm” value is given as “+0.06” and the “comments (Remedial Algae Control)” value is “Algistatic. More”. Also, in the data set on mustard algae [2], the “Score @ ppm active agent: 0” value turned out to be 1, the “Score @ ppm active agent: 10” value is on record as 1, the “Score @ ppm active agent: 15” value came out at 1 and the “Comments (Preventive Algae Control)” value is reported as “very little growth”.

For `C=CC1(C)OC(=O)N(c2cc(Cl)cc(Cl)c2)C1=O` (stereo not shown) [Vinclozolin, 3-(3,5-dichlorophenyl)-5-methyl-5-vinyl-1,3-oxazolidine-2,4-dione], the “Margin of Exposure vs. RfD” value in data set [3] (human, 3 hours per day, 10 ppm) was 0.3. Moreover, in data set [4], the “Margin of Exposure vs NOEL” value is reported as 33.

Consider `CC(C)OC(=O)Nc1cccc(Cl)c1` [Chlopropham, Isopropyl 3-chlorocarbanilate; isopropyl 3-chlorophenylcarbamate], for which the “Margin of Exposure vs. RfD (Target > 1)” value in data set [3] (human, 3 hours per day, 10 ppm) is on record as 0.7. Besides, the “Margin of Exposure vs NOEL (Target > 100)” value in data set [4] is 67.
